What was measured:
[1] = tested on: TB40-BACKL7-UL32EGFP-UL100mCherry; assay: Adsorption and penetration of dual fluorescent HCMV particles on HFFs; type: cell-based, Human cytomegalovirus; conditions: 100 ng/ml
Protocol: To distinguish between adsorption and penetration of viral particles the inventors made use of dual fluorescent HCMV TB40-BACKL7-UL32EGFP-UL100mCherry (Sampaio 2013). HFFs and HECs were seeded at a density of 40,000 cells per well on gelatin-coated MIDI plates. Overnight produced cell-free infectious supernatant of the fluorescent virus was pre-incubated with PDGFR-Fcs for 2 h at 37° C. Before addition of the mixture the cells were pre-incubated with MEM for 30 min. […] After fixation with acetone, the EGFP signal of pUL32-EGFP was enhanced using mouse-anti-GFP (clone 3E6, Invitrogen) and Alexa488-anti-mouse (Life Technologies). DAPI (4′,6-diamidino-2-phenylindole) was added to mark the cell nuclei. The number of mCherry and EGFP positive particles which are enveloped was compared to the number of particles which were only green per cell. These […] particles have lost their UL100mCherry containing envelope, presumably by fusion with cellular membranes.
To further investigate, which of the initial steps of infection are blocked, the inventors performed a series of experiments that allowed discriminating between adsorption and penetration. They used the dual fluorescent virus TB40-BACKL7-UL32EGFP-UL100mCherry (Sampaio 2013) as it allows to discriminate between enveloped (EGFP-positive and mCherry positive) and non-enveloped particles (only EGFP positive). […]

HCMV strain TB40/E = assay: Inhibition of infection of endothelial cells (HECs), IE antigen immunofluorescence; type: cell-based, Human cytomegalovirus
Protocol: For testing the inhibitory effect of antivirals or fusion proteins on HCMV, the respective inhibitors were diluted in MEM and mixed with infectious supernatants, the mixtures were incubated for 2 h at 37° C. before addition to the cells. For fibroblast infection the virus-inhibitor mixture was incubated on the cells for about 24 h. If endothelial cells were included in the experiment, all cells were supplied with their respective maintenance media after 2 h, and further incubated for 22 h.
Infection efficiencies were determined by immunofluorescence staining for viral proteins. For fixation and permeabilization the cells were incubated with 80% acetone for 5 min. For HCMV infected cells the immediate early proteins pUL122/123 were detected with a mouse monoclonal (clone E13, Argene) and visualized using a Cy3 conjugated goat anti-mouse secondary antibody (Jackson Immuno Research). HSV infected cultures were stained 6 h post infection for ICP0 using a mouse monoclonal (clone 11060, Santa Cruz) and goat anti-mouse AF488 (life technologies). DAPI was used to locate nuclei. Infection rates were determined by counting the number of cell nuclei positive for the respective viral protein, as well as the total number of nuclei per image. For each condition three images were evaluated. […]

[2] = tested on: HCMV wild type or UL74stop particles; assay: Staining of wild type and UL74stop (gO deficient) particles with Fc-fusion protein; type: binding, Human cytomegalovirus; conditions: 500 ng/ml, 2 h
Protocol: To assess the binding of Fc-Proteins to virus particles, HFFs were seeded at a density of 40,000 cells per well on IBIDI plates 1 day prior to infection. Virus preparations were pre-incubated with Fc-fusion proteins at a final concentration of 500 ng/ml for 2 h at 37° C. The virus/Fc-protein mixtures were incubated with the cells for 1.5 h on ice. Before fixation with 80% acetone, the cells were washed once with MEM. For staining of viral particles mouse hybridoma recognizing the abundant viral protein pp150 (generously provided by W. Britt, Sanchez 2000) used. As a secondary antibody goat anti-mouse Cy3 (Jackson Immuno Research was used. Visualization of bound Fc-proteins was achieved by applying anti-human Alexa488 (Invitrogen). For better orientation, cell nuclei were stained with DAPI. For quantification of PDGFR-alpha-Fc binding to HCMV particles, the grey values of 100 particles per condition were quantified using AxioVision Software (Zeiss).
To test whether pUL74 is an interaction partner of PDGFR-alpha-Fc, the inventors tested whether gO deficient particles can be stained with the soluble molecule similarly to wild type particles (shown in FIG. 8). HCMV wild type or UL74stop particles were incubated with 500 ng/ml PDGFR-alpha-Fc or PDGFRβ-Fc for 2 h before attachment to the cells ice. […]

HCMV TB40E = assay: Post adsorption inhibition on HFFs with or without PEG fusion; type: cell-based, Human cytomegalovirus
Protocol: For the analysis of post adsorption inhibition, HFFs were seeded at a density of 40,000 per well on IBIDI plates and incubated for 1 day before infection. Infectious supernatants of TB40E which were produced within 24 hours were cleared by centrifugation. Two identical plates were treated as follows: Cells and virus dilutions were precooled on ice for 15 min before attachment of the virus was allowed on ice for 1 h. The virus containing medium was exchanged by pre-cooled MEM with or without 200 ng/ml PDGFR-alpha-Fc. After 2 h incubation of the inhibitor with the cells on ice, one plate was directly shifted to 37° C., whereas the other cells were treated with pre-warmed 50% PEG (Roche) for 30 sec. The PEG was washed off by five times washing with pre-warmed PBS. Supplied with pre-warmed MEM containing again 200 ng/ml PDGFR-alpha-Fc, the cells were then incubated at 37° C. After 2 h incubation the medium was exchanged on PEG-treated and untreated cells and infection was allowed to proceed for 24 h before infection efficiencies were assessed by immediate early staining. Efficient PEG fusion was controlled visually by detection of syncytia.
HCMV virus particles were adsorbed to HFFs for 1 h on ice. The virus containing medium was then exchanged by medium containing PDGFR-alpha-Fc at a concentration of 200 ng/ml. […]

**Q.** With “PDGFR-alpha-Fc: recombinant Fc-fusion protein of the PDGFR-alpha extracellular domain, obtained from R&D (6765-PR-050)” as the substance, how does the “reduction of adsorption on HFFs” value [1] read?
**A.** 50%

**Q.** What about the “reduction of penetration of HFFs (less efficient)” value [1] of the same substance?
**A.** 75%

**Q.** And the “extent of reduction of infection of HECs” value (HCMV strain TB40/E)?
**A.** incomplete

**Q.** And the “EC50 of inhibition of infection of HECs” value (HCMV strain TB40/E; virus pre-incubated 2 h)?
**A.** 0.02 to 0.05 µg/mL

**Q.** And the “staining of wild type vs UL74stop particles with anti-human Fc antibody” value [2]?
**A.** Only virus particles containing the glycoprotein pUL74 were stained

**Q.** What about the “infectivity of already adsorbed viruses (reduced to)” value (HCMV TB40E; 200 ng/ml added post adsorption, HFFs) of the same substance?
**A.** 50%

**Q.** What about the “post adsorption inhibition after addition of PEG” value (HCMV TB40E; 200 ng/ml, 50% PEG 30 sec) of the same substance?
**A.** completely rescued
